Experimental data published in patent US8871962B2, “Method for producing sanshool” (Tsumura & Co., priority 2010, dated 2014).

Test: Stability test of sample solutions under exposure to fluorescent light (HPLC peak area)
Format: physicochemical
Conditions: acetonitrile sample solution (HαS 0.26 mg/mL, compound 5 0.49 mg/mL), room temperature, 24 hours under fluorescent light
Experimental: (HPLC Analysis Conditions)
Column: TSK-GEL 80TS (φ4.6 mm×150 mm) (Tosoh, Japan); column temperature: 40° C.; flow rate: 1.0 mL/min; measurement wavelength: 200 to 400 nm; mobile phase: Liquid A acetonitrile, Liquid B 0.1% Na2S2O3 aqueous solution (Liquid A: 40%, Liquid B: 60%); and measurement mode: isocratic mode.
HαS (27.6 mg) and the compound 5 (50.4 mg) were diluted to 100 mL with anhydrous acetonitrile (HPLC grade) to prepare 0.26 mg/mL and 0.49 mg/mL sample solutions. The sample solutions, dispensed in 50 mL aliquots, were allowed to stand at room temperature for 24 hours under exposure to fluorescent light. Quantitative analysis was performed under the above HPLC analysis conditions to measure peak area values of the HαS and the diene iron complex compound (compound 5).

peak area value (content) relative to initial level after light exposure | Compound
approximately 10% | C/C=C/C=C/C=C\CC/C=C/C(=O)NCC(C)(C)O [HαS, (2E,6Z,8E,10E)-N-(2-hydroxy-2-methylpropyl)dodeca-2,6,8,10-tetraenamide]
approximately 80% | tricarbonyl[(8,9,10,11-η)-(2E,6Z,8E,10E)-N-(2-hydroxy-2-methylpropyl)dodeca-2,6,8,10-tetraenamide]iron [compound 5]
